In paper PMC6211316, “Synthesis and biological evaluation of 3-arylcoumarin derivatives as potential anti-diabetic agents” (Journal of Enzyme Inhibition and Medicinal Chemistry, 2018):

System: STZ-induced diabetic mice
Assay: Oral glucose tolerance test in STZ-induced diabetic mice
Format: in vivo
Details: 30 mg/kg of bw, glucose 2 g/kg of bw, vs vehicle-treated group (p < 0.05)
Protocol: The target compounds 11, 17, and 35 (30 mg/kg of bw) and control drugs (glibenclamide 10 mg/kg of bw) were dissolved in the vehicle (Tween-80, NaCl 0.9%). Glucose (2 g/kg of bw) was used for the glucose tolerance tests. The control mice group received only the vehicle. All cases were treated orally. Blood samples were collected from caudal vein by means of a small incision in the end of the tail. Blood glucose levels were estimated by a commercial glucometer (Bayer Contour TS). For the anti-hyperglycemic tests, blood samples were obtained 0.5, 1, 1.5, 2, and 3 h after the glucose load. Percentage variation of glycemia for each group was calculated with respect to initial (0 h) level according to: % Variation of glycemia=[(Gi−Gt)/Gi]×100% where Gi is initial glycemia values and Gt is the glycemia value after samples administration. For the anti-hyperglycemic tests, data were represented as % variation of glycemia versus time. Studies were performed in normoglycemic and STZ-induced diabetic mice.

| Structure (SMILES) | postprandial glycemia peak in oral glucose tolerance test |
| --- | --- |
| O=c1oc2ccc(O)cc2cc1-c1ccc(O)cc1 [Compound 17, 6-Hydroxy-3-(4-hydroxyphenyl)-coumarin] | caused significant decrease in the postprandial glycemia peak |
| COc1ccc(-c2cc3c(O)cc(O)cc3oc2=O)cc1 [Compound 35, 5,7-Dihydroxy-3-(4-methoxyphenyl)-coumarin] | caused significant decrease in the postprandial glycemia peak |
